These are literature values, as cited in patent EP2361606A2, “Oral and tooth care and cleaning agents with ethyl lauroyl arginate” (Henkel AG & Co. KGaA, priority 2010, dated 2011).

[1] abbreviates: in water, 20°C, bound that defines the group of not soluble / soluble zinc salts.
Where [2] appears, read: in water, temperature not given, bound that defines the group of soluble inorganic zinc salts.

Like-named read-outs stand apart in the source and are kept apart here.

For the substance Zinkcitrat, the Löslichkeit under setting [1] is reported as less than 100 mg/L.
For the substance Zinkacetat-Dihydrat, the Löslichkeit (20°C) was 430 g/I (20°C).
With Zinkvalerat, the Löslichkeit under setting [1] was more than 100 mg/L.
As to Zinknitrat Hexahydrat, the Löslichkeit (20°C) was 1843 g/I (20°C).
For the substance Zinkchlorid, the Löslichkeit was 4320 g/I (25°C) (25°C) and more than 100 mg/L under setting [2].
For the substance Zinkstearat, the Löslichkeit is 0,9 mg/I (20°C) (20°C) and less than 100 mg/L under setting [1].
With Zinkgluconat, the Löslichkeit is, setting by setting: (20°C) 100 g/I (20°C); under setting [1], more than 100 mg/L.
Take Zinkhydroxycarbonat: the Löslichkeit result (result in words, 20°C) is “Fast unlöslich (20°C)”.
For Zinksulfat, the Löslichkeit under setting [2] is listed as more than 100 mg/L.
As for Zinkacetat, the Löslichkeit under setting [1] is listed as more than 100 mg/L.
With Zinkformiat, the Löslichkeit under setting [1] is recorded as more than 100 mg/L.
Take Zinksulfat-Monohydrat: the Löslichkeit result (20°C) was “∼350 g/I (20°C)”.
With Zinksulfat-Heptahydat, the Löslichkeit (20°C) was 960 g/I (20°C).
As for Zinnlaureat, under setting [1], the Löslichkeit is on record as less than 100 mg/L.
Consider Zinknitrat-Tetrahydrat, for which the Löslichkeit result (result in words, 20°C) is “Leicht löslich (20°C)”.
Regarding Zinktartrat, the Löslichkeit under setting [1] is less than 100 mg/L.
As for Zinknitrat, under setting [2], the Löslichkeit was more than 100 mg/L.
Regarding Zinkbromid, the Löslichkeit by setting is: (25°C) 820 g/I (25°C); under setting [2], more than 100 mg/L.
For Zinkiodid, the Löslichkeit is 4500 g/I (20°C) (20°C) and more than 100 mg/L under setting [2].
Take Zinklactat: the Löslichkeit under setting [1] is recorded as more than 100 mg/L.
In the case of Zinkoleat, the Löslichkeit under setting [1] was less than 100 mg/L.
On to Zinksalz der p-Toluolsulfonsäure, for which, under setting [1], the Löslichkeit is more than 100 mg/L.
In the case of Zinkbenzoat, the Löslichkeit under setting [1] is more than 100 mg/L.
With Zinkoxalat, the Löslichkeit under setting [1] was less than 100 mg/L.
Zinkoxid: the Löslichkeit runs as follows: under setting [1], less than 100 mg/L; (result in words, temperature not given) “Unlöslich”.
